The test system of this experiment is perennial ryegrass. As to the kind of experiment: Glyphosate sensitivity of perennial ryegrass parent. It is filed as in vivo, Lolium perenne. Conditions: sensitive parent. The protocol:
The R biotype of California rigid ryegrass, which survived 8× glyphosate and perennial ryegrass, which died from 0.25× of glyphosate, are grown individually in 950-ml pots with professional planting mix media as discussed above. Plants are maintained in greenhouse with supplemental light, watered daily, and fertilized weekly with NPK water soluble fertilizer (20-20-20). At the mature vegetative stage, perennial ryegrass plants are vernalized in the growth chamber with the temperature 4 ±1 C, 8 h day and 16 h night. After 4 weeks vernalization, the plants are removed and maintained in greenhouse until flowering.
Segregation of glyphosate sensitivity in the F2 population is illustrated in FIG. 4. The percentage of the sensitive plants in F2 (16 percent) is higher than expected due to the glyphosate rate (0.5×) exceeded the sensitivity level of sensitive parents.

`O=C(O)CNCP(=O)(O)O` [glyphosate, N-(phosphonomethyl) glycine]: the “sensitivity level (glyphosate rate from which plants died)” value turned out to be 0.25 ×.

The record behind these values is US7906709B2, “Methods for breeding glyphosate resistant plants and compositions thereof” (priority 2006, dated 2011).
